According to patent US8642647B2, “N1-benzo[1,3]dioxol-5-ylmethyl-N2-substituted biguanide derivative, preparation method thereof, and pharmaceutical composition containing same” (Hanall Biopharma Co., Ltd., priority 2008, dated 2014):
Counter-ions that a name gives are not always drawn.

Legend:
Assay type in all cases: cell-based
HepG2 cells [1] = assay: Measurement of cholesterol synthesis inhibitory ability; settings: for Cholesterol (100 μM) aver.: 100 μM compound; for Cholesterol (100 μM) aver. / Cholesterol (500 μM) aver.: 24 hours, HepG2 cells, content of cholesterol formed, lower value = stronger inhibition; for Cholesterol (500 μM) aver.: 500 μM compound
Procedure: (§1) 2 mM metformin was used as a comparative compound for each of the plates (control group).
A cholesterol synthesis inhibitory ability, which is an important function of AMPK (AMP-activated protein kinase), was measured using HepG2 cells (ATCC: American Type Culture Collection) as a hepatic cell model according to the following procedure.
The hepatic cell model HepG2 cells were cultured in 1% serum-containing media (DMEM (Gibco), FBS (Gibco)) for 24 hours, and then treated with 100 μM or 500 μM of each of the compounds prepared in Examples for 24 hours. Then, the cells were disrupted with a lysis solution (0.1 M potassium phosphate, pH 7.4, 0.05 M NaCl, 5 mM cholic acid, 0.1% Triton X-100 (Sigma)). To the disrupted cells was added the same volume of a reaction solution (2 U/ml of a cholesterol oxidizing agent, 2 U/ml of a peroxidase, 0.2 U/ml of a cholesterol esterase, and 300 μM of Amplex red as a fluorescent factor (Molecular Probe)), which was allowed to react at 37° C. for 30 minutes. After completion of the reaction, the content of cholesterol formed in the cell lysates was measured at a wavelength of 560/590 nm (ex/em) using a fluorescence microscope.
A lower measurement value means an increased cholesterol synthesis inhibitory ability.

HepG2 cells [2] = assay: Measurement of triglyceride synthesis inhibitory ability; settings: 24 hours, HepG2 cells, content of triglyceride formed, lower value = stronger inhibition; for Triglyceride (100 μM) aver.: 100 μM compound; for Triglyceride (500 μM) aver.: 500 μM compound
Procedure: as §1
HepG2 cells (ATCC: American Type Culture Collection) were cultured in 1% serum-containing media (DMEM (Gibco), FBS (Gibco)) for 24 hours, and then treated with 100 μM or 500 μM of each of the compounds prepared in Examples for 24 hours. Then, the cells were disrupted with a lysis solution (0.1 M potassium phosphate, pH 7.4, 0.05 M NaCl, 5 mM cholic acid, 0.1% Triton X-100). To the disrupted cells was added the same volume of a reaction solution (0.76 U/ml of a glycerol kinase (Asan Pharmaceutical Co., Ltd.), […] of a peroxidase (Asan Pharmaceutical Co., Ltd.), 22.2 U/ml of a glycerol oxidizing agent (Asan Pharmaceutical Co., Ltd.), and 300 μM of Amplex red as a fluorescent factor (Molecular Probe)), which was allowed to react at 37° C. for 30 minutes. After completion of the reaction, the content of triglyceride formed in the cell lysates was measured at a wavelength of 560/590 nm (ex/em) using a fluorescence microscope.
A lower measurement value means an increased triglyceride synthesis inhibitory ability.

HepG2 cells [3] = assay: Measurement of gluconeogenesis inhibitory ability; settings: Homo sapiens, HepG2, 24 h, 100 μM compound, 24 hours, HepG2 cells; content of glucose formed from 14C-lactate; lower value = stronger inhibition; read-out: Gluconeogenesis inhibition (100 μM) aver.
Procedure: as §1
HepG2 cells (ATCC: American Type Culture Collection) were cultured in 10% serum-containing high glucose media, transferred to no serum-containing low glucose media (DMEM (Gibco), FBS (Gibco)), and then treated with 100 μM of each of the compounds for 24 hours. Then, the cells were treated with 0.5 μCi ^14C-lactate (Amersham Pharmacia) and 10 mM L-lactate (Sigma), and cultured for 4 hours. After cultivation, the media were removed therefrom, and the cells were washed with PBS, treated with 0.1N NaOH and kept at room temperature for 1 hour. Then, the cells were neutralized with 1N HCl, and the content of glucose formed in the cells was measured with a liquid scintillation counter.
A lower measurement value means an increased gluconeogenesis inhibitory ability.

| SMILES | Cholesterol (100 μM) aver. (HepG2 cells [1]) | Cholesterol (500 μM) aver. (HepG2 cells [1]) | Triglyceride (100 μM) aver. (HepG2 cells [2]) | Triglyceride (500 μM) aver. (HepG2 cells [2]) | activity at 100 µM (HepG2 cells [3]) | effect in inhibiting cholesterol synthesis better than that of the control group (HepG2 cells [1]; 100 μM compound versus 2 mM metformin) |
| --- | --- | --- | --- | --- | --- | --- |
| CCN=C(NCc1ccc2c(c1)OCO2)NC(=N)N.Cl [Example 1, N1-benzo[1,3]dioxol-5-ylmethyl-N2-ethyl biguanide hydrochloride] | 66.3 | 50.8 | 98.6 | 49.6 | 89.8% | – |
| Cl.N=C(N)NC(=NC1CCCCC1)NCc1ccc2c(c1)OCO2 [Example 2, N1-benzo[1,3]dioxol-5-ylmethyl-N2-cyclohexyl biguanide hydrochloride] | 43.7 | 15.6 | 108.9 | 26.9 | 95.2% | – |
| N=C(N)NC(=Nc1cccc2ccccc12)NCc1ccc2c(c1)OCO2 [Example 3, N1-benzo[1,3]dioxol-5-ylmethyl-N2-(1-naphthyl)biguanide hydrochloride] | 8.11 | 28.8 | 3.74 | −6.97 | 3.27% | – |
| CCCCCCN=C(NCc1ccc2c(c1)OCO2)NC(=N)N.Cl [Example 6, N1-benzo[1,3]dioxol-5-ylmethyl-N2-hexyl biguanide hydrochloride] | 31.8 | 19.1 | 97.8 | 70.3 | 104% | – |
| N=C(N)NC(=NCCc1ccccc1)NCc1ccc2c(c1)OCO2 [Example 7, N1-benzo[1,3]dioxol-5-ylmethyl-N2-(phenethyl)biguanide hydrochloride] | 23.6 | 12.9 | 77.1 | 11.8 | 118% | – |
| Cl.N=C(N)NC(=Nc1cccc(C(F)(F)F)c1)NCc1ccc2c(c1)OCO2 [Example 10, N1-benzo[1,3]dioxol-5-ylmethyl-N2-(3-trifluoromethylphenyl)biguanide hydrochloride] | 33.41 | – | 11.52 | – | 2.76% | – |
| Cc1ccc(CN=C(NCc2ccc3c(c2)OCO3)NC(=N)N)cc1.Cl [Example 11, N1-benzo[1,3]dioxol-5-ylmethyl-N2-(4-methylbenzyl)biguanide hydrochloride] | 32.34 | – | 7.49 | – | 1.81% | – |
| COc1ccc(OC)c(N=C(NCc2ccc3c(c2)OCO3)NC(=N)N)c1.Cl [Example 12, N1-benzo[1,3]dioxol-5-ylmethyl-N2-(2,5-dimethoxyphenyl)biguanide hydrochloride] | 58.53 | – | 84.10 | – | 27.4% | – |
| Cl.N=C(N)NC(=Nc1ccc2c(c1)Cc1ccccc1-2)NCc1ccc2c(c1)OCO2 [Example 13, N1-benzo[1,3]dioxol-5-ylmethyl-N2-(2-fluorenyl)biguanide hydrochloride] | 31.42 | – | 9.22 | – | 2.15% | – |
| Cl.N=C(N)NC(=Nc1ccc(F)cc1)NCc1ccc2c(c1)OCO2 [Example 14, N1-benzo[1,3]dioxol-5-ylmethyl-N2-(4-fluorophenyl)biguanide hydrochloride] | 57.35 | – | 115.04 | – | 102% | – |
| COc1ccc(N=C(NCc2ccc3c(c2)OCO3)NC(=N)N)cc1.Cl [Example 15, N1-benzo[1,3]dioxol-5-ylmethyl-N2-(4-methoxyphenyl)biguanide hydrochloride] | 52.95 | – | 104.17 | – | 75.6% | at least 20 times |
| CCCN=C(NCc1ccc2c(c1)OCO2)NC(=N)N.Cl [Example 16, N1-benzo[1,3]dioxol-5-ylmethyl-N2-propyl biguanide hydrochloride] | 38.66 | – | 32.56 | – | 33.1% | – |
| C=CCN=C(NCc1ccc2c(c1)OCO2)NC(=N)N [Example 18, N1-benzo[1,3]dioxol-5-ylmethyl-N2-allyl biguanide hydrochloride] | 40.31 | 9.71 | 97.00 | 46.89 | 95.1% | – |
| Cl.N=C(N)NC(=NC1CCCC1)NCc1ccc2c(c1)OCO2 [Example 19, N1-benzo[1,3]dioxol-5-ylmethyl-N2-cyclopentyl biguanide hydrochloride] | 57.58 | 27.93 | 100.59 | 80.60 | 92.7% | – |
| Cl.N=C(N)NC(=NC1CCCCCC1)NCc1ccc2c(c1)OCO2 [Example 20, N1-benzo[1,3]dioxol-5-ylmethyl-N2-cycloheptyl biguanide hydrochloride] | 31.37 | −14.69 | 99.89 | 41.32 | 39.4% | – |
| CC(C)N=C(NCc1ccc2c(c1)OCO2)NC(=N)N.Cl [Example 22, N1-benzo[1,3]dioxol-5-ylmethyl-N2-isopropyl biguanide hydrochloride] | 63.99 | 34.97 | 78.51 | 60.13 | 83% | – |
| CC(C)CN=C(NCc1ccc2c(c1)OCO2)NC(=N)N.Cl [Example 23, N1-benzo[1,3]dioxol-5-ylmethyl-N2-isobutyl biguanide hydrochloride] | 68.02 | 36.29 | 84.58 | 59.80 | 100% | – |
| COc1cc(N=C(NCc2ccc3c(c2)OCO3)NC(=N)N)cc(OC)c1OC.Cl [Example 24, N1-benzo[1,3]dioxol-5-ylmethyl-N2-(3,4,5-trimethoxyphenyl)biguanide hydrochloride] | 65.36 | 31.14 | 80.30 | 60.08 | 88.7% | – |
| CCCCCCc1ccc(N=C(NCc2ccc3c(c2)OCO3)NC(=N)N)cc1.Cl [Example 25, N1-benzo[1,3]dioxol-5-ylmethyl-N2-(4-hexylphenyl)biguanide hydrochloride] | 82.62 | 125.3 | 18.43 | 35.53 | 2.53% | – |
| COc1cc(N=C(NCc2ccc3c(c2)OCO3)NC(=N)N)cc(OC)c1.Cl [Example 26, N1-benzo[1,3]dioxol-5-ylmethyl-N2-(3,5-dimethoxyphenyl)biguanide hydrochloride] | 61.86 | 17.53 | 86.94 | 21.88 | 87.6% | – |
| Cl.N=C(N)NC(=NC12CC3CC(CC(C3)C1)C2)NCc1ccc2c(c1)OCO2 [Example 27, N1-benzo[1,3]dioxol-5-ylmethyl-N2-(1-adamantyl)biguanide hydrochloride] | 64.82 | 45.24 | 67.58 | 11.48 | 31.4% | – |
